Experimental data reported in US20160168118A1, “N-(5-QUINOLIN-6-YL)PYRIDIN-3-YL) BENZSULFAMIDE DERIVATIVES, PREPARATION METHOD AND THERAPEUTIC USE THEREOF” (SECOND MILITARY MEDICAL UNIVERSITY, PLA, priority 2012, published 2016).
Values after ≈ are worked out from the molar mass of the structure shown.

Assays:
[1] = test system: HepG2 (human hepatoma cells); assay: MTT assay, HepG2; format: cell-based; details: 72 h
Protocol: (§1) 1. Sample preparation: After dissolved with DMSO (Merck), PBS (−) was added to make 1000 μg/ml solution or a uniform suspension, and then diluted with PBS (−) containing the DMSO. Doxorubicin (DOX) was used as the positive control drug.
(§2) 2. Cell Line • 1) A549 (human lung cancer cells); 2) HCT116 (human colon cancer cells); 3) HepG2 (human hepatoma cells); 4) ZR-75-30 (human breast cancer cells); 5) U87MG (human brain star glioblastoma)
(§3) DMEM+5-10% FBS+double resistant
(§4) MTT assay. 100 μl cell suspension was added at a concentration of 4˜5×10^4 cells/ml to each well of a 96-well plate, and was set at 37° C., 5% CO2 in the incubator. After 24 h, the sample solution was added, 10 μl/hole, double wells were set, 37° C., acting for 72 h at 5% CO2. […] of 5 mg/ml was added to each well, the dissolving liquid was added after acted for 4 h, 100 μl/hole, kept in the incubator, and read 570 nm OD with MK-2 automatic microplate reader after dissolution.

PI3Kα = PI3Kα (Homo sapiens, UniProt P42336); assay: Kinase-Glo Luminescent Kinase Assay, PI3Kα; format: biochemical
[2] = test system: A549 (human lung cancer cells); assay: MTT assay, A549; format: cell-based; details: 72 h
Protocol: as §1, §2, §3, §4

[3] = test system: HCT116 (human colon cancer cells); assay: MTT assay, HCT116; format: cell-based; details: HCT-116, 72 h
[4] = test system: U87MG (human brain star glioblastoma); assay: MTT assay, U87MG; format: cell-based; details: U-87 MG, 72 h
Protocol: as §1, §2, §3, §4

Chain of PI3Kα (P42336 whole entry, species assumed): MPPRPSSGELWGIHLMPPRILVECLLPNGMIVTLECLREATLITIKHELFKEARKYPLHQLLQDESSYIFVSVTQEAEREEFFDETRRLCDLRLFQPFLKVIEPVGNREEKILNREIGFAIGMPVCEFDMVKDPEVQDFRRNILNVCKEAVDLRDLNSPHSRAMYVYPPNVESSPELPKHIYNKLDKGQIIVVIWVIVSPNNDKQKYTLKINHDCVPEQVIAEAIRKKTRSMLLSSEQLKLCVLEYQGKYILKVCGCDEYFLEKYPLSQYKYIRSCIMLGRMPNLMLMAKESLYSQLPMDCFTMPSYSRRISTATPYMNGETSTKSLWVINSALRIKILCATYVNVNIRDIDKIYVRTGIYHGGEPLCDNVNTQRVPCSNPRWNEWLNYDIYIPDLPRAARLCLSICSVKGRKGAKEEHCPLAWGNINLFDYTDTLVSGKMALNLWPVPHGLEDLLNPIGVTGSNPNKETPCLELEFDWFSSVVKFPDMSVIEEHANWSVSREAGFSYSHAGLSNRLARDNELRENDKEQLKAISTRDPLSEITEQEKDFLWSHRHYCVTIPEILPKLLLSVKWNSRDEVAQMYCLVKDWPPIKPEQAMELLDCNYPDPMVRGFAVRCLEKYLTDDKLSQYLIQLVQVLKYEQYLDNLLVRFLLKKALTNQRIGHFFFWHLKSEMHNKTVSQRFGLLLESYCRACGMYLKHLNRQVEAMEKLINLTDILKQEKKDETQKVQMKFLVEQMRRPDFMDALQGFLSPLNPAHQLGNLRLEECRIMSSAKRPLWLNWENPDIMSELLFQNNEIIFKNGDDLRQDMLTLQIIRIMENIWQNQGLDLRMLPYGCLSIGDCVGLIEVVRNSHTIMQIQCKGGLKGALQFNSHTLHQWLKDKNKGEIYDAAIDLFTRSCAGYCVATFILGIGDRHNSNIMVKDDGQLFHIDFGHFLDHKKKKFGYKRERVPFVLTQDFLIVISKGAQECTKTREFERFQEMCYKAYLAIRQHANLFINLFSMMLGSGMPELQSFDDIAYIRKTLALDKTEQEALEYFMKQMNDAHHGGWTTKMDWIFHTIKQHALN
Chain of PI3Kα (P27986 whole entry partner, species assumed): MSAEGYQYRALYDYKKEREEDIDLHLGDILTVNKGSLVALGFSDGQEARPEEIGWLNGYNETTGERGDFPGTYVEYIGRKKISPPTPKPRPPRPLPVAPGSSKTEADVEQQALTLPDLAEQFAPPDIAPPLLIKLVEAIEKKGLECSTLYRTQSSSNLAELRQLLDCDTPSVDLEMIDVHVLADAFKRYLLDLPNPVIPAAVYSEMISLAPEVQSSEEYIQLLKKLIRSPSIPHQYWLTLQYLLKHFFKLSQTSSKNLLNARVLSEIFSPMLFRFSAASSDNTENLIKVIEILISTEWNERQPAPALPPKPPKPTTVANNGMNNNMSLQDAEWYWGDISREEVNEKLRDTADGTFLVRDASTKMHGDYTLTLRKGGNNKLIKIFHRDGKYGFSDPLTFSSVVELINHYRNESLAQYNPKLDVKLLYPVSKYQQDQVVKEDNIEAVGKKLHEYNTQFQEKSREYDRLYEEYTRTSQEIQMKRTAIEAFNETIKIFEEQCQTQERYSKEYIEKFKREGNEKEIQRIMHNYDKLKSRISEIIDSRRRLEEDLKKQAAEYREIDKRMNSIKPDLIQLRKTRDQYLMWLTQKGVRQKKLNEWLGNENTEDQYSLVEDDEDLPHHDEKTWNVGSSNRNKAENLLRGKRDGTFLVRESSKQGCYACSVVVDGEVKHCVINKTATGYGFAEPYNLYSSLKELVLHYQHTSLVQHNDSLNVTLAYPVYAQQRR

Compound	IC50 [1]	IC50 (PI3Kα)	IC50 [2]	melting point	IC50 [3]	IC50 [4]
COc1ncc(-c2ccc3nccc(-c4ccc(CN(C)C)cc4)c3c2)cc1NS(=O)(=O)c1ccc(F)cc1 [Compound 31, N-(5-(4-(4-((dimethylamine)methyl)phenyl)quinolin-6-yl)-2-methoxypyridine-3-yl)-4-fluorobenzenesulfonamide]	1.64 µg/mL (≈ 3.02 µM)	2.1 nM	0.2 µg/mL (≈ 0.369 µM)	150 to 152 °C	1.02 µg/mL (≈ 1.88 µM)	
CCN(Cc1ccc(-c2ccnc3ccc(-c4cnc(OC)c(NS(=O)(=O)c5ccc(F)cc5F)c4)cc23)cc1)C1CCCCC1 [Compound 22, N-(5-(4-(4-((cyclohexyl(ethyl)amino)methyl)phenyl)quinolin-6-yl)-2-methoxypyridine-3-yl)-2,4-difluorobenzenesulfonamide]		1.6 nM	0.013 µg/mL (≈ 0.0202 µM)	87 to 88 °C	0.143 µg/mL (≈ 0.222 µM)	0.93 µg/mL (≈ 1.45 µM)
COc1cccc2c1C(=O)c1c(O)c3c(c(O)c1C2=O)C[C@@](O)(C(=O)CO)C[C@@H]3O[C@H]1C[C@H](N)[C@H](O)[C@H](C)O1 [DOX, Doxorubicin, reference compound]			0.324 µg/mL (≈ 0.596 µM)		0.0308 µg/mL (≈ 0.0567 µM)	0.536 µg/mL (≈ 0.986 µM)
COc1ncc(-c2ccc3nccc(-c4ccc(C(=O)N5CCCC5)cc4)c3c2)cc1NS(=O)(=O)c1ccc(F)cc1F [Compound 11, N-(2-methoxy-5-(4-(4-(pyrrolidinyl-1-carbonyl)phenyl)quinolin-6-yl)pyridin-3-yl)-2,4-difluorobenzenesulfonamide]		0.7 nM	0.048 µg/mL (≈ 0.0799 µM)	115 to 117 °C	0.221 µg/mL (≈ 0.368 µM)	0.284 µg/mL (≈ 0.473 µM)
O=S(=O)(Nc1cc(-c2ccc3nccc(-c4ccc(CN5CCOCC5)cc4)c3c2)cnc1Cl)c1ccc(F)cc1F [Compound 30, N-(5-(4-(4-((morpholino-1-yl)methyl)phenyl)quinolin-6-yl)-2-chlorinepyridin-3-yl)-2,4-difluorobenzenesulfonamide]	1.4 µg/mL (≈ 2.31 µM)	1.1 nM	0.22 µg/mL (≈ 0.362 µM)		2.39 µg/mL (≈ 3.94 µM)	
O=S(=O)(Nc1cc(-c2ccc3nccc(-c4ccc(Cn5cncn5)cc4)c3c2)cnc1Cl)c1ccc(F)cc1 [Compound 33, N-(5-(4-(4-((1H-1,2,4-triazole-1-yl)methyl)phenyl)quinolin-6-yl)-2-chlorinepyridin-3-yl)-4-fluorobenzenesulfonamide]	5.47 µg/mL (≈ 9.58 µM)	0.73 nM	1.52 µg/mL (≈ 2.66 µM)	235 to 236 °C	1.43 µg/mL (≈ 2.5 µM)	
O=S(=O)(Nc1cc(-c2ccc3nccc(-n4cncn4)c3c2)cnc1Cl)c1ccc(F)cc1F [Compound 26, N-(5-(4-(1H-1,2,4-triazole-1-yl)quinolin-6-yl)-2-chlorinepyridin-3-yl)-2,4-difluorobenzenesulfonamide]	2.8 µg/mL (≈ 5.61 µM)	0.59 nM	2.35 µg/mL (≈ 4.71 µM)	118 to 121 °C	1.23 µg/mL (≈ 2.47 µM)	
COc1ncc(-c2ccc3nccc(-c4ccc(CN(C)CCN(C)C)cc4)c3c2)cc1NS(=O)(=O)c1ccc(F)cc1F [Compound 24]		2.5 nM	0.00804 µg/mL (≈ 0.013 µM)	87 to 88 °C	0.032 µg/mL (≈ 0.0518 µM)	0.157 µg/mL (≈ 0.254 µM)
O=S(=O)(Nc1cc(-c2ccc3nccc(-c4ccc(CN5CCOCC5)cc4)c3c2)cnc1Cl)c1ccc(F)cc1 [Compound 28, N-(5-(4-(4-((morpholino-1-yl)methyl)phenyl)quinolin-6-yl)-2-chlorinepyridin-3-yl)-4-fluorobenzenesulfonamide]	4.55 µg/mL (≈ 7.72 µM)	1.5 nM	0.47 µg/mL (≈ 0.798 µM)		1.87 µg/mL (≈ 3.17 µM)	
O=S(=O)(Nc1cc(-c2ccc3nccc(-c4ccc(Cn5cncn5)cc4)c3c2)cnc1Cl)c1ccc(F)cc1F [Compound 35, N-(5-(4-(4-((1H-1,2,4-triazole-1-yl)methyl)phenyl)quinolin-6-yl)-2-chlorinepyridin-3-yl)-2,4-difluorobenzenesulfonamide]	1.2 µg/mL (≈ 2.04 µM)	0.82 nM	5.66 µg/mL (≈ 9.61 µM)	145 to 148 °C	1.64 µg/mL (≈ 2.78 µM)	
COc1ncc(-c2ccc3nccc(-c4ccc(CN5CCN(C)CC5)cc4)c3c2)cc1NS(=O)(=O)c1ccc(F)cc1F [Compound 23, N-(5-(4-(4-((4-methylpiperazine-1-yl)methyl)phenyl)quinolin-6-yl)-2-methoxypyridine-3-yl)-2,4-difluorobenzenesulfonamide]		1.3 nM	0.00818 µg/mL (≈ 0.0133 µM)		0.027 µg/mL (≈ 0.0439 µM)	0.207 µg/mL (≈ 0.336 µM)
COc1ncc(-c2ccc3nccc(-c4ccc(Cn5ccnc5C)cc4)c3c2)cc1NS(=O)(=O)c1ccc(F)cc1F [Compound 16, N-(5-(4-(4-((2-methyl-1H-imidazole-1-yl)methyl)phenyl)quinolin-6-yl)-2-methoxypyridine-3-yl)-2,4-difluorobenzenesulfonamide]		0.95 nM	0.00608 µg/mL (≈ 0.0102 µM)	110 to 111 °C	0.00846 µg/mL (≈ 0.0142 µM)	0.024 µg/mL (≈ 0.0402 µM)
COc1ncc(-c2ccc3nccc(-c4ccc(CN5CCCCC5)cc4)c3c2)cc1NS(=O)(=O)c1ccc(F)cc1F [Compound 14, N-(5-(4-(4-((piperidine-1-yl)methyl)phenyl)quinolin-6-yl)-2-methoxypyridine-3-yl)-2,4-difluorobenzenesulfonamide]		1.2 nM	0.00934 µg/mL (≈ 0.0155 µM)		0.0205 µg/mL (≈ 0.0341 µM)	0.019 µg/mL (≈ 0.0316 µM)
COc1ncc(-c2ccc3nccc(-c4ccc(CN5CCN(CCO)CC5)cc4)c3c2)cc1NS(=O)(=O)c1ccc(F)cc1F [Compound 19, N-(5-(4-(4-((4-(2-hydroxyethyl)piperazine-1-yl)methyl)phenyl)quinolin-6-yl)-2-methoxypyridine-3-yl)-2,4-difluorobenzenesulfonamide]		1.2 nM	0.016 µg/mL (≈ 0.0248 µM)		0.014 µg/mL (≈ 0.0217 µM)	0.137 µg/mL (≈ 0.212 µM)
COc1ncc(-c2ccc3nccc(-c4ccc(Cn5cccn5)cc4)c3c2)cc1NS(=O)(=O)c1ccc(F)cc1F [Compound 21, N-(5-(4-(4-((1H-pyrazole-1-yl)methyl)phenyl)quinolin-6-yl)-2-methoxypyridine-3-yl)-2,4-difluorobenzenesulfonamide]		1.1 nM	0.018 µg/mL (≈ 0.0308 µM)	93 to 95 °C	0.031 µg/mL (≈ 0.0531 µM)	0.935 µg/mL (≈ 1.6 µM)
COc1ncc(-c2ccc3nccc(-c4ccc(Cn5ccnc5)cc4)c3c2)cc1NS(=O)(=O)c1ccc(F)cc1F [Compound 15, N-(5-(4-(4-((1H-imidazole-1-yl)methyl)phenyl)quinolin-6-yl)-2-methoxypyridine-3-yl)-2,4-difluorobenzenesulfonamide]		1.1 nM	0.018 µg/mL (≈ 0.0308 µM)	108 to 109 °C	0.019 µg/mL (≈ 0.0326 µM)	0.35 µg/mL (≈ 0.6 µM)
COc1ncc(-c2ccc3nccc(-c4ccc(CN5CCCC5)cc4)c3c2)cc1NS(=O)(=O)c1ccc(F)cc1F [Compound 12]		1.4 nM	0.022 µg/mL (≈ 0.0375 µM)	129 to 130 °C	0.011 µg/mL (≈ 0.0188 µM)	0.093 µg/mL (≈ 0.159 µM)
COc1ncc(-c2ccc3nccc(-c4ccc(CN(CCO)CCO)cc4)c3c2)cc1NS(=O)(=O)c1ccc(F)cc1F [Compound 20, N-(5-(4-(4-((di(2-hydroxyethyl)amino)methyl)phenyl)quinolin-6-yl)-2-methoxypyridine-3-yl)-2,4-difluorobenzenesulfonamide]		1.3 nM	0.00174 µg/mL (≈ 0.0028 µM)	90 to 91 °C	0.00237 µg/mL (≈ 0.00382 µM)	0.089 µg/mL (≈ 0.143 µM)
COc1ncc(-c2ccc3nccc(-c4ccc(CN5CCN(C(C)C)CC5)cc4)c3c2)cc1NS(=O)(=O)c1ccc(F)cc1F [Compound 18, N-(5-(4-(4-((4-isopropylpiperazine-1-yl)methyl)phenyl)quinolin-6-yl)-2-methoxypyridine-3-yl)-2,4-difluorobenzenesulfonamide]		1.7 nM	0.00124 µg/mL (≈ 0.00193 µM)		0.0159 µg/mL (≈ 0.0247 µM)	0.301 µg/mL (≈ 0.468 µM)
COc1ncc(-c2ccc3nccc(-c4ccc(CN5CCOCC5)cc4)c3c2)cc1NS(=O)(=O)c1ccc(F)cc1 [Compound 29, N-(5-(4-(4-((morpholino-1-yl)methyl)phenyl)quinolin-6-yl)-2-methoxypyridine-3-yl)-4-fluorobenzenesulfonamide]	15.9 µg/mL (≈ 27.1 µM)	1.6 nM	0.15 µg/mL (≈ 0.257 µM)		1.37 µg/mL (≈ 2.34 µM)	
COc1ncc(-c2ccc3nccc(-c4ccc(CN(C)CCO)cc4)c3c2)cc1NS(=O)(=O)c1ccc(F)cc1 [Compound 38, N-(5-(4-(4-(((2-hydroxyethyl)(methyl)amino)methyl)phenyl)quinolin-6-yl)-2-methoxypyridine-3-yl)-4-fluorobenzenesulfonamide]	1.06 µg/mL (≈ 1.85 µM)	4.8 nM	0.19 µg/mL (≈ 0.332 µM)		1.12 µg/mL (≈ 1.96 µM)	
COc1ncc(-c2ccc3nccc(-c4ccc(CN5CCOCC5)cc4)c3c2)cc1NS(=O)(=O)c1ccc(F)cc1F [Compound 13, N-(5-(4-(4-((morpholino-1-yl)methyl)phenyl)quinolin-6-yl)-2-methoxypyridine-3-yl)-2,4-difluorobenzenesulfonamide]		1.1 nM	0.042 µg/mL (≈ 0.0697 µM)	97 to 99 °C	0.00196 µg/mL (≈ 0.00325 µM)	0.091 µg/mL (≈ 0.151 µM)
